Patent publication US20230139171A1 (SITA Information Networking Computing UK Limited, priority 2019, published 2023)

Experiments:
Type in all cases: cell-based
human TLR8 = molecular target: T1, human TLR8 (Homo sapiens, UniProt Q9NR97); assay: TLR8 inhibition reporter assay (HEK-Blue cells, SEAP reporter, R848 stimulation); settings: HEK-Blue cells overexpressing human TLR8, SEAP reporter, R848 15.9 μM; read-out: TLR8 IC50
T1 construct: host or cells: HEK-Blue cells
T1 sequence (Q9NR97 27-1041): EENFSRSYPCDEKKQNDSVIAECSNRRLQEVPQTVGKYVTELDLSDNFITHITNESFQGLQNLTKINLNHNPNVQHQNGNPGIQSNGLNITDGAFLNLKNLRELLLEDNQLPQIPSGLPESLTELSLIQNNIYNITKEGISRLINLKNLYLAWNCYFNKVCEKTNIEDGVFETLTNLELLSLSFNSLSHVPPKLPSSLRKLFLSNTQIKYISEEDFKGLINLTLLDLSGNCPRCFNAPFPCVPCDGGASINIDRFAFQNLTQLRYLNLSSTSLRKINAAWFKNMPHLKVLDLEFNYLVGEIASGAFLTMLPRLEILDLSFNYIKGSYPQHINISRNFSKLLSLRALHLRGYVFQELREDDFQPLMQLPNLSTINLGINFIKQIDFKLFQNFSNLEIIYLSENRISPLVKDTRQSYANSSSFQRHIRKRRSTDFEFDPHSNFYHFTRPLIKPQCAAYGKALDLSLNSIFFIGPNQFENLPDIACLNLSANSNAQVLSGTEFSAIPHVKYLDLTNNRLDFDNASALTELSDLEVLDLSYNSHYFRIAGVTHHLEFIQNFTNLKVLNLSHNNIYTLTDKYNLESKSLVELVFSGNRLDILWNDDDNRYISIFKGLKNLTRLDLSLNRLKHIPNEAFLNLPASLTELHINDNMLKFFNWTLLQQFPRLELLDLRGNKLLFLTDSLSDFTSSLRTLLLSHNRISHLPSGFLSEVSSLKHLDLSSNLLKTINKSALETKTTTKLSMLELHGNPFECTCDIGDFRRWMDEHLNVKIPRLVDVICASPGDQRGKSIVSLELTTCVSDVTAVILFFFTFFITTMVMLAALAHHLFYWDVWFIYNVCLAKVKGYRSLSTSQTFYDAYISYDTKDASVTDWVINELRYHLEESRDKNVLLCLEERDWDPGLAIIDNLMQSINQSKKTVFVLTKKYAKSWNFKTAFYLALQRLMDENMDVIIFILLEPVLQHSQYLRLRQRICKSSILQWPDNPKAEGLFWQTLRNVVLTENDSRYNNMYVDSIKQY
Method in brief: (§1)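 Compound treatment: 30 min, RT, 0.05 nM–50 μM final. Agonist: TLR7 gardiquimod 7.5 μM; TLR8 R848 15.9 μM; TLR9 ODN2006 5 nM. Incubation 22 h, 37 °C, 5% CO2. Readout SEAP, HEK-Blue Detection.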

human TLR9 = molecular target: T2, human TLR9 (Homo sapiens, UniProt Q9NR96); assay: TLR9 inhibition reporter assay (HEK-Blue cells, SEAP reporter, ODN2006 stimulation); settings: HEK-Blue cells overexpressing human TLR9, SEAP reporter, ODN2006 5 nM
T2 construct: host or cells: HEK-Blue cells
T2 sequence (Q9NR96 26-1032): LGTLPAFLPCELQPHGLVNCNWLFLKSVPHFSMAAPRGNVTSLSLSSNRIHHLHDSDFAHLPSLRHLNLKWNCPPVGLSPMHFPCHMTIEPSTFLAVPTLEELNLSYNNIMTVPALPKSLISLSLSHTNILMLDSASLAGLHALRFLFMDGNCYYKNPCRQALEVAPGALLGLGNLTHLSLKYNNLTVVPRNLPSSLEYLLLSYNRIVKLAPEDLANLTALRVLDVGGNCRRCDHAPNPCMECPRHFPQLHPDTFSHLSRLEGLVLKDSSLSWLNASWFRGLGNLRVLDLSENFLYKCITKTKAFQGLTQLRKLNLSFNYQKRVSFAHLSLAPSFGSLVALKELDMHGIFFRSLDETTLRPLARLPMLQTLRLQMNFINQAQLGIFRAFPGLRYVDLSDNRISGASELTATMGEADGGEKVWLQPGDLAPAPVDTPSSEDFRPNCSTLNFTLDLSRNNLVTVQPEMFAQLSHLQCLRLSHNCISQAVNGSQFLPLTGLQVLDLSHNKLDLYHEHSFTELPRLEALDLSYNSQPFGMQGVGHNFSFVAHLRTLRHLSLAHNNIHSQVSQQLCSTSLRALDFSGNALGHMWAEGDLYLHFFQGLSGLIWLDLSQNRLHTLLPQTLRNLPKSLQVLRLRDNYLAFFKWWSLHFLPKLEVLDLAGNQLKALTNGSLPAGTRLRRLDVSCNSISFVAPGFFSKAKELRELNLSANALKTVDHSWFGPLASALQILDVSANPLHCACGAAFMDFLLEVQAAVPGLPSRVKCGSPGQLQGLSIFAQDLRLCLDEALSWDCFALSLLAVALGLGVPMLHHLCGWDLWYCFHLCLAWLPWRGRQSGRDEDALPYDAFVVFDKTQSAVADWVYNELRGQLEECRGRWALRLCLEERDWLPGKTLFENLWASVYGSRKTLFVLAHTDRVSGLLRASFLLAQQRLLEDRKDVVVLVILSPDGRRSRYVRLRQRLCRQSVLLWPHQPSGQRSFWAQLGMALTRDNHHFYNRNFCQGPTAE
Method in brief: as §1

human TLR7 = molecular target: T3, human TLR7 (Homo sapiens, UniProt Q9NYK1); assay: TLR7 inhibition reporter assay (HEK-Blue cells, SEAP reporter, gardiquimod stimulation); settings: HEK-Blue cells overexpressing human TLR7, SEAP reporter, gardiquimod 7.5 μM; read-out: TLR7 IC50
T3 construct: host or cells: HEK-Blue cells
T3 sequence (Q9NYK1 27-1049): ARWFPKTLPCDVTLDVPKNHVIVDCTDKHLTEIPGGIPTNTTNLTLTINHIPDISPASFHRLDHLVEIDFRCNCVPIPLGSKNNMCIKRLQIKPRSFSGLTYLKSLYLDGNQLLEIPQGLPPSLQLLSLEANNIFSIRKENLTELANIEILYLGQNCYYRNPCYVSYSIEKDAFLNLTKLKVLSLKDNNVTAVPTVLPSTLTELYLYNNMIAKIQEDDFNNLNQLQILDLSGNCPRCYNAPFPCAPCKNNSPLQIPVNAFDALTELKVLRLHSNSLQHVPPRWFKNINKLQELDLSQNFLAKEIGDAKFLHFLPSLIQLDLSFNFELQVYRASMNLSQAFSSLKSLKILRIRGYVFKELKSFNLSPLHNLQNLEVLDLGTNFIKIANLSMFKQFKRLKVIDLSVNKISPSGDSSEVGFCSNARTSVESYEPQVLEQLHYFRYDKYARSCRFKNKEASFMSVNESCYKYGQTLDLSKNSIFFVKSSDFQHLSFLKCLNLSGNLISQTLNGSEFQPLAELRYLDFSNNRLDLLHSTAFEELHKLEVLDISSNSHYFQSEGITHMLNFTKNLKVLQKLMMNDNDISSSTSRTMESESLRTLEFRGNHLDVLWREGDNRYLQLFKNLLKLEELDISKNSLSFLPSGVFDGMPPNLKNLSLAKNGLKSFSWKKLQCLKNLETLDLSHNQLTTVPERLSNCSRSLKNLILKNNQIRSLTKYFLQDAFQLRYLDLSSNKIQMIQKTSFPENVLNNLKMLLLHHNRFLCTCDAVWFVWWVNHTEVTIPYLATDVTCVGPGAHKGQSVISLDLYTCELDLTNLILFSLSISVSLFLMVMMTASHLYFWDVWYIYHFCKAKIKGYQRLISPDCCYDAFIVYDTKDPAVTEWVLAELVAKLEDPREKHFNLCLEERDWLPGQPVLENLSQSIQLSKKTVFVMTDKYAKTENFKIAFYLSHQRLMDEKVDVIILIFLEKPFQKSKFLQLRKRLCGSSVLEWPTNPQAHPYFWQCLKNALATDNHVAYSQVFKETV
Method in brief: as §1

| SMILES | IC50 (human TLR8) | IC50 (human TLR9) | IC50 (human TLR7) |
| --- | --- | --- | --- |
| COC1CN(C2CCC(c3nc4c(C(C)C)c(-c5cn6ncnc6c(C)c5C)[nH]c4s3)CC2)C1 (single isomer, unassigned) [Example 189, 5-(7,8-dimethyl-[1,2,4]triazolo[1,5-a]pyridin-6-yl)-6-isopropyl-2-(4-(3-methoxyazetidin-1-yl)cyclohexyl)-4H-pyrrolo[3,2-d]thiazole] | 5.18 nM | 10000 nM | 3.35 nM |
| CCN(C)C1CCC(c2nc3c(C(C)C)c(-c4cn5ncnc5c(C)c4C)[nH]c3s2)CC1 (single isomer, unassigned) [Example 190, 4-(5-(7,8-dimethyl-[1,2,4]triazolo[1,5-a]pyridin-6-yl)-6-isopropyl-4H-pyrrolo[3,2-d]thiazol-2-yl)-N-ethyl-N-methylcyclohexan-1-amine] | 0.58 nM | 8350 nM | 0.8 nM |
| CCN(C)C1CCC(c2nc3c(C(C)C)c(-c4cn5ncnc5c(C)c4C)[nH]c3s2)CC1 (single isomer, unassigned) [Example 191, 4-(5-(7,8-dimethyl-[1,2,4]triazolo[1,5-a]pyridin-6-yl)-6-isopropyl-4H-pyrrolo[3,2-d]thiazol-2-yl)-N-ethyl-N-methylcyclohexan-1-amine] | 1.79 nM | 9370 nM | 1.5 nM |
| Cc1c(-c2[nH]c3sc(C4CCC(N5CC6(COC6)C5)CC4)nc3c2C(C)C)cn2ncnc2c1C (single isomer, unassigned) [Example 192, 6-(4-(5-(7,8-dimethyl-[1,2,4]triazolo[1,5-a]pyridin-6-yl)-6-isopropyl-4H-pyrrolo[3,2-d]thiazol-2-yl)cyclohexyl)-2-oxa-6-azaspiro[3.3]heptane] | 0.33 nM | 16200 nM | 1.67 nM |
| Cc1c(-c2[nH]c3sc(C4CCC(N5CC6(COC6)C5)CC4)nc3c2C(C)C)cn2ncnc2c1C (single isomer, unassigned) [Example 193, 6-(4-(5-(7,8-dimethyl-[1,2,4]triazolo[1,5-a]pyridin-6-yl)-6-isopropyl-4H-pyrrolo[3,2-d]thiazol-2-yl)cyclohexyl)-2-oxa-6-azaspiro[3.3]heptane] | 4.45 nM | 7630 nM | 1.97 nM |
| Cc1c(-c2[nH]c3sc(C4CCC(NC(C)C)CC4)nc3c2C(C)C)cn2ncnc2c1C (single isomer, unassigned) [Example 194, 4-(5-(7,8-dimethyl-[1,2,4]triazolo[1,5-a]pyridin-6-yl)-6-isopropyl-4H-pyrrolo[3,2-d]thiazol-2-yl)-N-isopropylcyclohexan-1-amine] | 0.37 nM | 9220 nM | 0.9 nM |
| Cc1c(-c2[nH]c3sc(C4CCC(NC(C)C)CC4)nc3c2C(C)C)cn2ncnc2c1C (single isomer, unassigned) [Example 195, 4-(5-(7,8-dimethyl-[1,2,4]triazolo[1,5-a]pyridin-6-yl)-6-isopropyl-4H-pyrrolo[3,2-d]thiazol-2-yl)-N-isopropylcyclohexan-1-amine] | 1.66 nM | 5500 nM | 2.24 nM |
| Cc1c(-c2[nH]c3sc(C4CCC(NCC(C)(C)O)CC4)nc3c2C(C)C)cn2ncnc2c1C (single isomer, unassigned) [Example 196, 1-((4-(5-(7,8-dimethyl-[1,2,4]triazolo[1,5-a]pyridin-6-yl)-6-isopropyl-4H-pyrrolo[3,2-d]thiazol-2-yl)cyclohexyl)amino)-2-methylpropan-2-ol] | 0.17 nM | 12700 nM | 1.13 nM |
| Cc1c(-c2[nH]c3sc(C4CCC(NCC(C)(C)O)CC4)nc3c2C(C)C)cn2ncnc2c1C (single isomer, unassigned) [Example 197, 1-((4-(5-(7,8-dimethyl-[1,2,4]triazolo[1,5-a]pyridin-6-yl)-6-isopropyl-4H-pyrrolo[3,2-d]thiazol-2-yl)cyclohexyl)amino)-2-methylpropan-2-ol] | 2.08 nM | 13100 nM | 5.35 nM |
| Cc1c(-c2[nH]c3sc(C4CCC(NCC(C)(C)C)CC4)nc3c2C(C)C)cn2ncnc2c1C (single isomer, unassigned) [Example 199, 4-(5-(7,8-dimethyl-[1,2,4]triazolo[1,5-a]pyridin-6-yl)-6-isopropyl-4H-pyrrolo[3,2-d]thiazol-2-yl)-N-neopentylcyclohexan-1-amine] | 2.19 nM | 2950 nM | 4.98 nM |
| Cc1c(-c2[nH]c3sc(C4CCC(NC5CCOCC5)CC4)nc3c2C(C)C)cn2ncnc2c1C (single isomer, unassigned) [Example 200, N-(4-(5-(7,8-dimethyl-[1,2,4]triazolo[1,5-a]pyridin-6-yl)-6-isopropyl-4H-pyrrolo[3,2-d]thiazol-2-yl)cyclohexyl)tetrahydro-2H-pyran-4-amine] | 0.39 nM | 10100 nM | 0.92 nM |
